The results in this text go back to ChEMBL document CHEMBL4270604, “Hedgehog pathway inhibitors of the acylthiourea and acylguanidine class show antitumor activity on colon cancer in vitro and in vivo” (Eur J Med Chem, 2018).

SMILES strings stand for the structures.

Series [1] is described as follows: Drug recovery in mouse deproteinized plasma at 37 degC after 120 mins by HPLC-MS/MS analysis. Type of series: ADME, cell-free. The following applies: read-out: Drug recovery.
Series [2] is described as follows: in vitro. Particulars: human, Caco-2.
Description: Efflux ratio of apparent permeability from basolateral to apical over apical to basolateral side in human Caco2 cells after 120 mins by LC-MS/MS analysis
Series [3] has as its target T1, CYP2C9 (Homo sapiens, UniProt P11712). In words: Inhibition of recombinant human CYP2C9 expressed in insect cell microsomes at 5 uM using Luciferin-H as substrate preincubated for 30 mins followed by NADPH addition measured after 30 mins by luminometric method. Particulars: probe Luciferin-H. Type of series: ADME.
Series [4] is described as follows: Drug recovery in mouse plasma at 37 degC after 120 mins by HPLC-MS/MS analysis. Type of series: ADME, cell-free. The following applies: read-out: Drug recovery.
The target in series [5] is CYP2C19 (Homo sapiens, UniProt P33261). In words: Inhibition of recombinant human CYP2C19 expressed in insect cell microsomes at 1 uM using Luciferin-H EGE as substrate preincubated for 20 mins followed by NADPH addition measured after 30 mins by luminometric method. Format: ADME. Particulars: probe Luciferin-H EGE.
For series [6], the target named is CYP3A4 (Homo sapiens, UniProt P08684). Nature of the series: Inhibition of recombinant human CYP3A4 expressed in insect cell microsomes at 10 uM using Luciferin-IPA as substrate preincubated for 10 mins followed by NADPH addition measured after 10 mins by luminometric method. Format: ADME. The following applies: probe Luciferin-IPA.
Series [7] addresses T2, CYP1A2 (Homo sapiens, UniProt P05177).
T2 sequence (P05177 whole entry): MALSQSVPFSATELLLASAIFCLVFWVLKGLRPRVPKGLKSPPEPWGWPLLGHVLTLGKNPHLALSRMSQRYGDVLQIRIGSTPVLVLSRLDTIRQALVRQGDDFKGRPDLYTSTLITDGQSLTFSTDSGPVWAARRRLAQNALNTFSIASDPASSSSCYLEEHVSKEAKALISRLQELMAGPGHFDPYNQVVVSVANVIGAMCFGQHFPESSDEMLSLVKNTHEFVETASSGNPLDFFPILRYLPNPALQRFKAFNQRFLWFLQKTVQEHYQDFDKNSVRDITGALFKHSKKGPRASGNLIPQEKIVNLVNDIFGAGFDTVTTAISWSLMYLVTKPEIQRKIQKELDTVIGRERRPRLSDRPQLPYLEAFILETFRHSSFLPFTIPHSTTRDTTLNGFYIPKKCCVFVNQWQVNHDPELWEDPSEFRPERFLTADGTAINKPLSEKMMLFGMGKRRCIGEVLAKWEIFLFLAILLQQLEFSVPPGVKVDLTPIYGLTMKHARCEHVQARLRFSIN
Nature of the series: Inhibition of recombinant human CYP1A2 expressed in insect cell microsomes at 5 uM using Luciferin-ME as substrate preincubated for 10 mins followed by NADPH addition measured after 30 mins by luminometric method. Format: ADME. The following applies: probe Luciferin-ME.

Series [8] can be described thus: Apparent clearance in CD1 mouse at 200 mg/kg, po administered as single dose by HPLC-MS/MS analysis. Format: ADME, organism-based. Particulars: in vivo.
Series [9] deals with T1, CYP2C9. In words: Inhibition of recombinant human CYP2C9 expressed in insect cell microsomes at 10 uM using Luciferin-H as substrate preincubated for 30 mins followed by NADPH addition measured after 30 mins by luminometric method. Type of series: ADME. The following applies: probe Luciferin-H.
The nature of series [10]: in vitro. Particulars: human, Caco-2. The source holds these as a separate data set.
Description: Apparent permeability of the compound from basolateral to apical side in human Caco2 cells after 120 mins by LC-MS/MS analysis
The nature of series [11]: in vitro. The following applies: human, Caco-2. This is another data set of the same source.
Description: Apparent permeability of the compound from apical to basolateral side in human Caco2 cells after 120 mins by LC-MS/MS analysis
Series [12] relates to Mus musculus. Nature of the series: Clast in CD1 mouse at 200 mg/kg, po administered as single dose by HPLC-MS/MS analysis. Type of series: ADME, organism-based. Particulars: in vivo.
Series [13] deals with T2, CYP1A2. Nature of the series: Inhibition of recombinant human CYP1A2 expressed in insect cell microsomes at 10 uM using Luciferin-ME as substrate preincubated for 10 mins followed by NADPH addition measured after 30 mins by luminometric method. Format: ADME. The following applies: probe Luciferin-ME.
The nature of series [14]: Apparent terminal volume of distribution in CD1 mouse at 200 mg/kg, po administered as single dose by HPLC-MS/MS analysis. Particulars: in vivo, read-out: Vz/F. Type of series: ADME, organism-based.
In series [15] the test system is HT-1080. Nature of the series: Antiproliferative activity against human HT1080 cells after 72 hrs by sulforhodamine-B assay. Type of series: functional, cell-based. Particulars: for IC50: HT-1080, 72 h.
Series [16] concerns LS180. In words: Antitumor activity against human LS180 cells xenografted in athymic nude mouse assessed as tumor growth inhibition at 200 mg/kg, po administered 5 days per week for 2 weeks relative to vehicle-treated control. Type of series: functional. The following applies: read-out: TGI.
Series [17] is described as follows: Intrinsic clearance in mouse liver […] per million cells at 1 uM after 120 mins by HPLC-MS/MS analysis. Format: ADME. The following applies: 2 h.
The nature of series [18]: Intrinsic clearance in mouse liver microsomes at 1 uM after 120 mins by HPLC-MS/MS analysis. Format: ADME, microsome. Particulars: read-out: CLH.
The subject of series [19] is Mus musculus. In words: Toxicity in athymic nude mouse xenografted with human LS180 cells assessed as body weight loss at 200 mg/kg, po administered 5 days per week for 2 weeks. Format: organism-based. Particulars: in vivo.
Series [20] is described as follows: Stability of the compound in mouse deproteinized plasma at 37 degC after 120 mins by HPLC-MS/MS analysis. Particulars: 2 h. Type of series: ADME, cell-free.
The nature of series [21]: Half life in cryopreserved mouse liver microsomes at 1 uM after 120 mins by HPLC-MS/MS analysis. Format: ADME, microsome.

T1 sequence (P11712 whole entry): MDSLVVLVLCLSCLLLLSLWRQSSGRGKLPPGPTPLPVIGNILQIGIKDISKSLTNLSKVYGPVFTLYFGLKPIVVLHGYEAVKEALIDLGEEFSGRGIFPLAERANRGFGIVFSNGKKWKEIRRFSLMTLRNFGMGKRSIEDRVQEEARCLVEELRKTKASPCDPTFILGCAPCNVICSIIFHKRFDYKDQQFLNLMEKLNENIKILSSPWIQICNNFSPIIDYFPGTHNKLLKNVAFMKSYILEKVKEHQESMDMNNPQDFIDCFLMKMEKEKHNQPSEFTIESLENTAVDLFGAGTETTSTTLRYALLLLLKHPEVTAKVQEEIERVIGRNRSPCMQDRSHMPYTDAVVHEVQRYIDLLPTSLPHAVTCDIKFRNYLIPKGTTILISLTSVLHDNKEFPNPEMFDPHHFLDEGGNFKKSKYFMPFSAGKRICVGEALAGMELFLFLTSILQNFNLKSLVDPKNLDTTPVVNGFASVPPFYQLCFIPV
CYP3A4, sequence (P08684 whole entry): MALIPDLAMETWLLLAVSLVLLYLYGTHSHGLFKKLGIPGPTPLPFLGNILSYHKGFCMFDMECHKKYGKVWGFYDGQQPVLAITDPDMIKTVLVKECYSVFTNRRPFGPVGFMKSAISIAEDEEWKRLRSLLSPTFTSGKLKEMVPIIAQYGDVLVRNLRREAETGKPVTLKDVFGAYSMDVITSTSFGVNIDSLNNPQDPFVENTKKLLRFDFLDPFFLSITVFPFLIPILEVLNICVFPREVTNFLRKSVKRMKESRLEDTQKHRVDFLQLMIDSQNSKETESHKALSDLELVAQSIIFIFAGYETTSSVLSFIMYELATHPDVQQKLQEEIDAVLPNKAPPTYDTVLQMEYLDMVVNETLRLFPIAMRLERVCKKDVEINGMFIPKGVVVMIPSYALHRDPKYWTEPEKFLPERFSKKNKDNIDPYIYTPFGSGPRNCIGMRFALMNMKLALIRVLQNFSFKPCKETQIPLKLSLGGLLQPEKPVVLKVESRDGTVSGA
CYP2C19, sequence (P33261 whole entry): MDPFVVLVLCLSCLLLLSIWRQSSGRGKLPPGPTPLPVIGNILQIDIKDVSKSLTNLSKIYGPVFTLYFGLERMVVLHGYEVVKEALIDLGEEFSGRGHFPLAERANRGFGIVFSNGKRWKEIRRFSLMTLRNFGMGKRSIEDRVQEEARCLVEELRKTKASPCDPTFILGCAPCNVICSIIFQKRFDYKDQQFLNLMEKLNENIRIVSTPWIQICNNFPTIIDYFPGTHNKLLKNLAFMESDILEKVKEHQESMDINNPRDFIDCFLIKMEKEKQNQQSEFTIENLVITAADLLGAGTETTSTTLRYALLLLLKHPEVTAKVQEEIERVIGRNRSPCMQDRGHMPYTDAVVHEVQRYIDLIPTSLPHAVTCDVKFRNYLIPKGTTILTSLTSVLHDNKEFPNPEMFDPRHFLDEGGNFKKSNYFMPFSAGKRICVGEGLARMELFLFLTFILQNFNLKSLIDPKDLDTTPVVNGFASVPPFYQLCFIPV

For the compound `COc1cc(C(=O)NC(=N)Nc2ccc(C)c(NC(=O)c3ccc(-c4ccccc4)cc3)c2)cc(OC)c1OC.Cl`, the remaining at 2 h in series [1] came to 83%; in series [4] it was 72.1%. Moreover, the efflux ratio at 2 h in [2] is 1.52. Further, the inhibition at 0.5 h, 5 µM was 71% in series [3] and 64% in series [7]. The inhibition at 0.5 h, 1 µM in series [5] stood at 57%. For the same compound, the inhibition at 10 min, 10 µM in [6] is 87%. Moreover, the apparent clearance (CL/F) in [8] is 14 mL/min/kg. Also, the inhibition at 0.5 h, 10 µM came to 74% in series [9] and 64% in series [13]. The compound also showed a Papp B→A at 2 h in series [10] of 0.651 ×10⁻⁶ cm/s. In series [11], this compound gave a Papp A→B at 2 h of 0.428 ×10⁻⁶ cm/s. The same compound had a Clast in [12] of 74.2 ng/mL. Also, the Vd/F in [14] was 2.96 L/kg. Also, the Activity result in [15] is “Dose-dependent effect”. This compound gave an IC50 in series [15] of 29 µM.

Turning to `COc1cc(C(=O)NC(=N)Nc2ccc(C)c(NC(=O)c3ccc(CCc4ccccc4)cc3)c2)cc(OC)c1OC.Cl`, in series [16], the inhibition in vivo at 200 mg/kg was 48%. Further, in [2], the efflux ratio at 2 h was 1.05. The inhibition at 0.5 h, 5 µM in [3] was found to be 81%; in [7] it was 43%. Moreover, in series [17], the CLH came out at 286 µL/min. For the same compound, the remaining at 2 h in series [4] was found to be 81.3%. In addition, in [5], the inhibition at 0.5 h, 1 µM was 67%. Also, in [6], the inhibition at 10 min, 10 µM is 92%. Moreover, the CLint scaled at 1 µM in series [18] amounted to 756 mL/min/kg. In addition, the CL/F in [8] was 24.3 mL/min/kg. For the same compound, the inhibition at 0.5 h, 10 µM in series [9] was 83%; in series [13], 40%. Also, in series [10], the Papp B→A at 2 h came to 0.737 ×10⁻⁶ cm/s. In addition, the Activity entry is “Non-Toxic” in series [19] and “Dose-dependent effect” in series [15]. Also, the Papp A→B at 2 h in series [11] amounted to 0.701 ×10⁻⁶ cm/s. In series [12], the Clast amounted to 50.7 ng/mL. In [14], the Vd/F turned out to be 5.28 L/kg. Further, in series [20], the Stability result is given as “Stable”. The half-life at 1 µM in series [21] was 8.07 min. For the same compound, 2 µM corresponded to half-maximal inhibition in series [15] (IC50).

Consider `COc1cc(C(=O)NC(=N)Nc2ccc(C)c(NC(=O)c3ccc(-c4ccc(F)cc4)cc3)c2)cc(OC)c1OC.Cl`, for which, in [2], the efflux ratio at 2 h turned out to be 1.01. The inhibition at 0.5 h, 5 µM in series [3] came to 76%; in series [7] it was 58%. The remaining at 2 h in [4] worked out at 66.6%. The inhibition at 0.5 h, 1 µM in [5] is 59%. The inhibition at 10 min, 10 µM in series [6] came out at 82%. Moreover, the CL/F in [8] is 14.9 mL/min/kg. Besides, the inhibition at 0.5 h, 10 µM in series [9] stood at 79%; in series [13], 59%. The same compound showed a Papp B→A at 2 h in series [10] of 0.37 ×10⁻⁶ cm/s. In series [11], the Papp A→B at 2 h was 0.366 ×10⁻⁶ cm/s. In [12], this compound displayed a Clast of 90.7 ng/mL. The Vd/F in [14] was 3.32 L/kg. The Stability entry in series [20] is listed as “Stable”. Also, the Activity result in series [15] was “Dose-dependent effect”. The same compound showed an IC50 in series [15] of 20 µM.
